Reference: patent publication US11359178B2, “Method for producing parasympathetic neurons” (NATIONAL INSTITUTE OF ADVANCED INDUSTRIAL SCIENCE AND …, priority 2018, dated 2022)

Assays:
[1] = system: parasympathetic neurons obtained by culturing in the differentiation-inducing medium 3 (NDM+PMA+RA); conditions: nicotine 1 μM; neurons induced in NDM+PMA+RA, 13th to 37th day from start of culturing
Experimental: Furthermore, response to nicotine stimulation for parasympathetic neurons obtained by culturing in the differentiation-inducing medium 3 (NDM+PMA+RA) was assessed by intracellular calcium imaging. 1 mg/mL Fluo-4 AM (Invitrogen, F14201)/DMSO was directly added to a medium on the differentiation induction culture 24th day at a final concentration of 5 μg/mL. After incubation in an incubator (37° C., 5% CO2) for 30 minutes, the medium was removed and replaced with Ringer's solution (149 mM NaCl, 2.8 mM KCl, 2 mM CaCl2, 1 mM MgCl2, 10 mM HEPES, 10 mM D-(+)-glucose [pH 7.4]), and changes in the intracellular calcium concentrations were measured by detecting changes in the fluorescence intensity. For the measurement, 300 frames were photographed at a frame rate of 2 fps using an Olympus microscope (IX81), EMCCD (Andor iXon), and MetaMorph Software (Molecular Devices). Additionally, nicotine stimulation was performed by adding nicotine to Ringer's solution at a final concentration of 1 μM. ImageJ was used for data analysis after measurement.

[2] = system: autonomic neural progenitor cells; experiment: Induction of autonomic neural progenitor cells to differentiate into parasympathetic neurons, immune cell staining (TH, ChAT, PHOX2B, MAP2); format: cell-based, Human
Experimental: A 24-well plate coated with poly-L-ornithine and laminin was prepared by the following procedure. The plate was coated for one hour with a PLO solution (20 μg/mL) prepared with DW, washed once with DW, and coated for two hours with a laminin solution (5 μg/mL) prepared with PBS. Subsequently, the N2 medium was supplemented with 10 μM FSK, 10 ng/mL BDNF, 10 ng/mL GDNF, 10 ng/mL NT-3, 10 ng/mL NGF, and 50 μg/mL Ascorbic Acid (all final concentrations) to prepare a neural differentiation medium (NDM).
The following four kinds of differentiation-inducing media were prepared using NDM:
Differentiation-inducing medium 1: NDM+10 ng/mL PMA (final concentration)
Differentiation-inducing medium 2: NDM+1 μM RA (final concentration)
Differentiation-inducing medium 3: NDM+10 ng/mL PMA+1 μM RA (both final concentrations)
Differentiation-inducing medium 4: NDM only (by a known method)
The autonomic neural progenitor cells obtained by the above-described Step 5 were washed once with PBS, followed by addition of TrypLE Express Enzyme (250 μL/well), and cells were exfoliated by incubating the medium for five minutes. 10% FBS-containing DMEM was added to terminate the enzyme reaction, and the cells were collected in a centrifuge tube. After the medium was centrifuged at 200×g for four minutes, the supernatant was removed, cells were suspended with NDM, and the cells were counted. […] The media cultured for at least 20 days from the start of culturing with the differentiation-inducing media 1 to 4 were analyzed by immune staining and intracellular calcium imaging following the procedure described below. […]
The primary antibody solution was removed, and the plate was washed twice with 0.2% Tween 20/PBS, followed by addition of a secondary antibody/Can Get Signal Solution A (1000-fold diluted Alexa Fluro488 or 1000-fold diluted Alexa Fluor555) or 3000-fold diluted Hoechst 33342 solution, and the mixture was allowed to stand for one hour at room temperature. The secondary antibody solution was removed, and the plate was washed twice with 0.2% Tween 20/PBS and then observed under a fluorescence microscope.

GATA3 = conditions: Yamashita et al. 2002; Th2 cell differentiation; cited from earlier work
[3] = differentiation induction 13th to 87th day from start of culturing, 10 ng/mL PMA and/or 1 μM RA in NDM, compared with NDM only (FIG. 2)

SMILES | response to nicotine stimulation (intracellular calcium, Fluo-4 AM fluorescence) [1] | differentiation induction efficiency ([2]; 13th to 87th day, single additive in NDM, compared with NDM only) | ChAT positive cells (parasympathetic neuron marker) [2, 3] | TH positive cells (sympathetic neuron marker) [2, 3] | expression of transcription factor GATA3 (GATA3)
CN1CCCC1c1cccnc1 (single isomer, unassigned; (-)) [nicotine, (−)-Nicotine] | strong response |  |  |  | 
CCCCCCCCCCCCCC(=O)O[C@@H]1[C@@H](C)[C@@]2(O)[C@@H](C=C(CO)C[C@]3(O)C(=O)C(C)=C[C@@H]23)[C@@H]2C(C)(C)[C@]12OC(C)=O [PMA, Phorbol 12-myristate 13-acetate] |  | reduced | markedly reduced | markedly reduced | enhance
